Legend:
Assay in all cases: Kinase profiling in a biochemical assay panel (mobility shift assays and ELISA), %-inhibition at 1 μM; selectivity entropy
[1] = biological target: panel of more than 300 wild-type and mutant kinases (313 kinase panel) (Homo sapiens, UniProt P16234, V561D)
[2] = biological target: T1, panel of more than 300 wild-type and mutant kinases (313 kinase panel) (Homo sapiens, UniProt P52564)
T1 sequence (P52564 1-334): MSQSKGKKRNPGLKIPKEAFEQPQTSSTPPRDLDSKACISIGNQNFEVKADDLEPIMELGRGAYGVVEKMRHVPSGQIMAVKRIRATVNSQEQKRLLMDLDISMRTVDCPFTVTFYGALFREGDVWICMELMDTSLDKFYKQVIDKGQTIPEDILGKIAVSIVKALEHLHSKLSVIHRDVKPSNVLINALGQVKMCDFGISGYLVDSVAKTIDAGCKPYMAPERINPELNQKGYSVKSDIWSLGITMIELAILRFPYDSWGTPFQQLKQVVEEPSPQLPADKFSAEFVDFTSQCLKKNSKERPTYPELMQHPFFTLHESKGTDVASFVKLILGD

[3] = biological target: panel of more than 300 wild-type and mutant kinases (313 kinase panel) (Homo sapiens, UniProt Q15418)
[4] = biological target: T2, panel of more than 300 wild-type and mutant kinases (313 kinase panel) (Homo sapiens, UniProt Q99683)
T2 sequence (Q99683 1-1374): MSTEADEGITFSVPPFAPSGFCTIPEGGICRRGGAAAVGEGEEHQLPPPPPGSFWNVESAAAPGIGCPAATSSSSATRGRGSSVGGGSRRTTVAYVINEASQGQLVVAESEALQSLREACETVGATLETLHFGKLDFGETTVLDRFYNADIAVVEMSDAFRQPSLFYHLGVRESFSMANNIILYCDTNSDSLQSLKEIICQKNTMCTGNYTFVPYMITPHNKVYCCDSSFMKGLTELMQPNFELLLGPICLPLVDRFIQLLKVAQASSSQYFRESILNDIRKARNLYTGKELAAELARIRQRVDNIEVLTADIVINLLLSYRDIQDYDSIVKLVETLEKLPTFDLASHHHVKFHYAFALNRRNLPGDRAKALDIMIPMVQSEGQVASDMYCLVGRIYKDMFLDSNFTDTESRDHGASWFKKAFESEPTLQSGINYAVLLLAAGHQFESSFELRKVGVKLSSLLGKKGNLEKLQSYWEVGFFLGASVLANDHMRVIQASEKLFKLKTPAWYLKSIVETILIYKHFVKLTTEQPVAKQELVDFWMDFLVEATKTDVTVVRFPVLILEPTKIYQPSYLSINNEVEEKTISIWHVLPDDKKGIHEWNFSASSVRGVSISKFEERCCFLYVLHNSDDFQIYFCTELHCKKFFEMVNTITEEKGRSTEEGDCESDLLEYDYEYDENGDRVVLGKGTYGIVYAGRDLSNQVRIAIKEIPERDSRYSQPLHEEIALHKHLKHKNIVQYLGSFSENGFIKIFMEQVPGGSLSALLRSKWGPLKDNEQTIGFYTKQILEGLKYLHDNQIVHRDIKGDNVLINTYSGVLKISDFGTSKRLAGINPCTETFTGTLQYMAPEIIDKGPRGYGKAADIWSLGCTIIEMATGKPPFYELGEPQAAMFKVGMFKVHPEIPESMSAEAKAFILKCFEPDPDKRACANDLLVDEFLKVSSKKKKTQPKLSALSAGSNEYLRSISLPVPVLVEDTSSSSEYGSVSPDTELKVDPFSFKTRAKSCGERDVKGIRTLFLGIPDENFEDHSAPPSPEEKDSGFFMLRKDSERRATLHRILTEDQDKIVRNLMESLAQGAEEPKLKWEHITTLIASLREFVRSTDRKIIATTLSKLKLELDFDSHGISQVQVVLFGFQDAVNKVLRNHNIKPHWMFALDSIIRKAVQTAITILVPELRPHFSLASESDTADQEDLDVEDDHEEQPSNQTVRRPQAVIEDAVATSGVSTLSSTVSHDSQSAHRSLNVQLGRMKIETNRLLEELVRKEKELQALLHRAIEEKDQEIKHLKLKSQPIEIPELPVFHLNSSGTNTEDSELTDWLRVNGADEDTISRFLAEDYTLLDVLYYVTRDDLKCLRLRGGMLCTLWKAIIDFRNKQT

[5] = biological target: T3, panel of more than 300 wild-type and mutant kinases (313 kinase panel) (Homo sapiens, UniProt Q99759)
T3 sequence (Q99759 1-626): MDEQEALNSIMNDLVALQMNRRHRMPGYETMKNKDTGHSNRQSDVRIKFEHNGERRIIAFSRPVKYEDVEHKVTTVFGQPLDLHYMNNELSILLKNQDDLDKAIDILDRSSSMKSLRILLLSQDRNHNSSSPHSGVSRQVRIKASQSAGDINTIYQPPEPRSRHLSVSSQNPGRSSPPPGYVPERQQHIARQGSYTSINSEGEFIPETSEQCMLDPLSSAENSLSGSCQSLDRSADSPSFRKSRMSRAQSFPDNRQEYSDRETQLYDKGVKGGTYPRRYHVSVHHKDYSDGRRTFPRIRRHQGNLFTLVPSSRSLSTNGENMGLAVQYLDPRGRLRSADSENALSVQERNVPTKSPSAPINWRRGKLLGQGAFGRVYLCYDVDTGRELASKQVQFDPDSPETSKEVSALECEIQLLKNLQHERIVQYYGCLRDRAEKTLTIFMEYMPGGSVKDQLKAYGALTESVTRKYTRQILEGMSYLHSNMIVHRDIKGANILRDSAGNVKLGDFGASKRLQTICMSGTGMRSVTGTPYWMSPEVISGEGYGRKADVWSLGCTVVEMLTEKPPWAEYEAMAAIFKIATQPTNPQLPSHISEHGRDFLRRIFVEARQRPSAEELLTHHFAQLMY

[6] = biological target: panel of more than 300 wild-type and mutant kinases (313 kinase panel) (Homo sapiens, UniProt Q9H2X6)
[7] = kinase MAP2K6, compound at 1 μM
[8] = kinase MAP3K5, compound at 1 μM
[9] = kinase MAP3K3, compound at 1 μM

Sequence of panel of more than 300 wild-type and mutant kinases (313 kinase panel) (Homo sapiens, UniProt P16234, V561D) (P16234 24-1089 V561D): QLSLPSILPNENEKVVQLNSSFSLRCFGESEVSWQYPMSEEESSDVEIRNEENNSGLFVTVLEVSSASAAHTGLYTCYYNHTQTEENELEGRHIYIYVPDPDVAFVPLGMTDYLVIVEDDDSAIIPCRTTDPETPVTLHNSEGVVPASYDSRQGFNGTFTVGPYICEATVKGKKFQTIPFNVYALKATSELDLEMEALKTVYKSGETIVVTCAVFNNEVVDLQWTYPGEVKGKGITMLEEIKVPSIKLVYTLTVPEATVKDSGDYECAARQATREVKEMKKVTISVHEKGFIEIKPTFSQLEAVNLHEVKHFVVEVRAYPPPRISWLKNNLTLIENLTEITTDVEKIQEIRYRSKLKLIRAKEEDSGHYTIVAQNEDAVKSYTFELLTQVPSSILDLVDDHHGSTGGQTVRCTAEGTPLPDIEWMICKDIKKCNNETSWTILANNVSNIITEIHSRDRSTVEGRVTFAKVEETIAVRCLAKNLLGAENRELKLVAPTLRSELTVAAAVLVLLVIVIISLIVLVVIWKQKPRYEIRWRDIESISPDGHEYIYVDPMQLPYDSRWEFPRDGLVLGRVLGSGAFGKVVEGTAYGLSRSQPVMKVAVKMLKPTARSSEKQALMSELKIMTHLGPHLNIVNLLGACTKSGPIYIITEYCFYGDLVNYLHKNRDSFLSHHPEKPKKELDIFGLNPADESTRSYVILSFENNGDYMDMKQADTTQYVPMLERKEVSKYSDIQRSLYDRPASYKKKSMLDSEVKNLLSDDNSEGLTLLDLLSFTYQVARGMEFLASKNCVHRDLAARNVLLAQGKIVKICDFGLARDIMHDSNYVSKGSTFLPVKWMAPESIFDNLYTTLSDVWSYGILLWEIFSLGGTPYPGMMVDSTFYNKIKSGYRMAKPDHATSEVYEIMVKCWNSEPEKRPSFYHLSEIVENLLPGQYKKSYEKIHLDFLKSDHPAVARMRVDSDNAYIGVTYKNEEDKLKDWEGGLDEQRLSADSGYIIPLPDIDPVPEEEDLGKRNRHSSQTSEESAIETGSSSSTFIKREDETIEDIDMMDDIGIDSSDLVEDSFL

SMILES | %-inhibition of PDGFRα(V561D) ([1]; kinase PDGFRα(V561D), 1 μM) [%] | %-inhibition of MAP2K6 [2, 7] [%] | %-inhibition of RSK1 ([3]; kinase RSK1, 1 μM) [%] | %-inhibition of MAP3K5 [4, 8] [%] | %-inhibition of MAP3K3 [5, 9] [%] | %-inhibition of HIPK2 ([6]; kinase HIPK2, compound at 1 μM) [%] | %-inhibition of HIPK2 ([6]; 1 µM) [%] | %-inhibition of PDGFRα(V561D) ([1]; 1 µM) [%] | %-inhibition of MAP2K6 ([2]; 1 µM) [%] | %-inhibition of MAP3K3 ([5]; 1 µM) [%] | %-inhibition of RSK1 ([3]; 1 µM) [%] | %-inhibition of MAP3K5 ([4]; 1 µM) [%]
CO[C@H]1C[C@@H]2CC[C@@H](C)[C@@](O)(O2)C(=O)C(=O)N2CCCC[C@H]2C(=O)O[C@H]([C@H](C)C[C@@H]2CC[C@@H](OC(=O)C(C)(CO)CO)[C@H](OC)C2)CC(=O)[C@H](C)/C=C(\C)[C@@H](O)[C@@H](OC)C(=O)[C@H](C)C[C@H](C)/C=C/C=C/C=C/1C [temsirolimus] | -4 | 15 | -6.45 | 2.79 | 10 | 0.538 | – | – | – | – | – | –
CNC(=O)c1cc(Oc2ccc(NC(=O)Nc3ccc(Cl)c(C(F)(F)F)c3)c(F)c2)ccn1 [regorafenib] | 101 | 93 | 0.165 | 5 | 9 | 78 | – | – | – | – | – | –
CO[C@H]1C[C@@H]2CC[C@@H](C)[C@@](O)(O2)C(=O)C(=O)N2CCCC[C@H]2C(=O)O[C@H]([C@H](C)C[C@@H]2CC[C@@H](OCCO)[C@H](OC)C2)CC(=O)[C@H](C)/C=C(\C)[C@@H](O)[C@@H](OC)C(=O)[C@H](C)C[C@H](C)/C=C/C=C/C=C/1C [everolimus] | -6 | 13 | -13 | 2.56 | 3.6 | -6 | – | – | – | – | – | –
COc1cc2nccc(Oc3ccc(NC(=O)C4(C(=O)Nc5ccc(F)cc5)CC4)cc3)c2cc1OC [cabozantinib] | 99 | 83 | -7.61 | 1.72 | 9 | 60 | – | – | – | – | – | –
Cc1nc(Nc2ncc(C(=O)Nc3c(C)cccc3Cl)s2)cc(N2CCN(CCO)CC2)n1 [dasatinib] | – | 47 | – | -1.69 | 88 | 6 | – | – | – | – | – | –
COc1cc2c(Nc3ccc(Br)cc3F)ncnc2cc1OCC1CCN(C)CC1 [vandetanib] | 100 | 18 | – | 8 | 9 | -11 | – | – | – | – | – | –
CC(C)(C)c1nc(-c2cccc(NS(=O)(=O)c3c(F)cccc3F)c2F)c(-c2ccnc(N)n2)s1 [dabrafenib] | 51 | 1.34 | – | – | 6 | 42 | – | – | – | – | – | –
Cc1ccc(Nc2nccc(N(C)c3ccc4c(C)n(C)nc4c3)n2)cc1S(N)(=O)=O [pazopanib] | – | 78 | 16 | 18 | 77 | 5.51 | – | – | – | – | – | –
N#CC[C@H](C1CCCC1)n1cc(-c2ncnc3[nH]ccc23)cn1 [ruxolitinib] | 18 | 44 | 1.49 | 6 | 36 | – | 9 | – | – | – | – | –
C[C@@H](Oc1cc(-c2cnn(C3CCNCC3)c2)cnc1N)c1c(Cl)ccc(F)c1Cl [crizotinib] | 30 | 19 | -5 | 1.11 | – | -6.53 | – | – | – | – | – | –
CCCS(=O)(=O)Nc1ccc(F)c(C(=O)c2c[nH]c3ncc(-c4ccc(Cl)cc4)cc23)c1F [vemurafenib] | 56 | 31 | -1.32 | 13 | 8 | -5 | – | – | – | – | – | –
O=S(=O)(c1cccc2cnccc12)N1CCCNCC1 [fasudil] | 9 | 2.2 | – | -15 | -14 | -1.86 | – | – | – | – | – | –
CS(=O)(=O)CCNCc1ccc(-c2ccc3ncnc(Nc4ccc(OCc5cccc(F)c5)c(Cl)c4)c3c2)o1 [lapatinib] | – | – | 2.59 | 6 | – | 1.46 | – | -1 | 9 | 4.75 | – | –
C#Cc1cccc(Nc2ncnc3cc(OCCOC)c(OCCOC)cc23)c1 [erlotinib] | – | – | – | – | – | – | 10 | 56 | 6 | 17 | 9 | 5
Cc1cn(-c2cc(NC(=O)c3ccc(C)c(Nc4nccc(-c5cccnc5)n4)c3)cc(C(F)(F)F)c2)cn1 [nilotinib] | – | 84 | 22 | -2.28 | – | 16 | – | 100 | – | -21 | – | –
COc1cc(Nc2c(C#N)cnc3cc(OCCCN4CCN(C)CC4)c(OC)cc23)c(Cl)cc1Cl [bosutinib] | 64 | – | – | – | 91 | – | – | – | – | – | – | –
CCN(CC)CCNC(=O)c1c(C)[nH]c(/C=C2\C(=O)Nc3ccc(F)cc32)c1C [sunitinib] | – | – | – | – | 76 | – | – | – | – | – | – | –
Cc1ccc(C(=O)Nc2ccc(CN3CCN(C)CC3)c(C(F)(F)F)c2)cc1C#Cc1cnc2cccnn12 [ponatinib] | 103 | – | 32 | – | 88 | – | – | – | – | – | – | –

Reference: paper PMC3961306, “Comparison of the Cancer Gene Targeting and Biochemical Selectivities of All Targeted Kinase Inhibitors Approved for Clinical Use” (PLoS ONE, 2014)
